The values that follow come from patent publication US20240294522A1 (Lead Discovery Center GmbH, priority 2021, published 2024).

The structures appear in SMILES notation.

For one assay, the target named is T1, GRK2 (Homo sapiens, UniProt P25098).
T1 construct: purchased Thermo Scientific
T1 sequence (P25098 1-689): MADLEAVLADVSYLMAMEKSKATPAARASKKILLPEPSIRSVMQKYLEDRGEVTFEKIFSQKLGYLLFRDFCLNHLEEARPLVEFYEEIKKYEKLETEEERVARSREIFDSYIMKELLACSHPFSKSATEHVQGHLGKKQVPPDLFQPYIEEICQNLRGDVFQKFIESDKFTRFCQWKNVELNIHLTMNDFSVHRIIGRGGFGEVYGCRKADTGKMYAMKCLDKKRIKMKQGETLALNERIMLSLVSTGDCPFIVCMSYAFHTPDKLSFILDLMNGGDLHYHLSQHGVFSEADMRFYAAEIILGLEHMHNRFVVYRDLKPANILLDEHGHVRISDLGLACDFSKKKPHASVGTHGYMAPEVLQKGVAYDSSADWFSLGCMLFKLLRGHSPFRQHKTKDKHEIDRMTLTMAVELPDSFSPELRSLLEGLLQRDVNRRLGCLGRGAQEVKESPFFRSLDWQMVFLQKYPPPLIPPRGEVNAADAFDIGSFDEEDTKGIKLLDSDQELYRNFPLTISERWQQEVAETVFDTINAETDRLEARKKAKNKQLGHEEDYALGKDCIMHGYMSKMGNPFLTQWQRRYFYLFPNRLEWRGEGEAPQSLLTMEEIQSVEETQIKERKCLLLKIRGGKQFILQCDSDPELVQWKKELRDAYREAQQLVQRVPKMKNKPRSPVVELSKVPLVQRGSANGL
Briefly: Lance Kinase Activity Assay, GRK2. The note with it: biochemical Lance kinase activity assay; class symbols A-F; read-out: GRK2 LANCE Assay (IC-50). In a few lines: (§1)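 IC50s from sigmoidal dose-response over 0.0025-10 μM compound, with phosphorylated ULight substrate detected by Eu anti-phospho antibody FRET after EDTA quench.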

Assay [1] has as its system neonatal rat ventricular cardiac myocytes (NRVCMs). Briefly: In vitro cardiomyocyte hypertrophy assay. It counts as cell-based, Wistar rats. The note with it: inhibition of cellular hypertrophy, NRVCMs stimulated with phenylephrine 20 μM and leukemia inhibitory factor 50 ng/ml, 96 h, read-out: Hypertrophy Assay (IC-50). Here is the method:
5-6 days old Wistar rats were sacrificed by decapitation and neonatal rat ventricular cardiac myocytes (NRVCMs) were prepared using the Neonatal heart dissociation kit (Miltenyi Biotec) according to the manufacturer's instructions. The cardiac single cell suspension was resuspended in DMEM low glucose medium supplemented with 2% fetal bovine serum (FBS) and 50 μg/ml penicillin/streptomycin. 1500 cells/well were seeded on 0.1% gelatin-coated 384-well plates and incubated in medium at 37° C. and 5% CO2 for 24 h prior to the addition of test compounds to the cells at titrated concentrations. Cellular hypertrophy was then stimulated by adding phenylephrine and leukemia inhibitory factor at final concentrations of 20 μM and 50 ng/ml, respectively, and the cells were incubated for another 96 h. For immunocytochemistry, cells were fixed with 4% formaldehyde on day 5 of compound treatment and cardiomyocytes were stained with antibodies against a-actinin while cell nuclei were stained with DAPI. Image acquisition and phenotypic analysis was performed using an Image-Xpress Micro XL automated microscope (Molecular Devices).
Inhibition of cellular hypertrophy is indicated as IC50 [nM]. Compounds having an activity designated as “A” provided an IC50≤500 nM; compounds having an activity designated as “B” provided an 500 nM<IC50≤1000 nM; compounds having an activity designated as “C” provided an IC50>1000 nM.

The target in another assay is T2, GRK5 (Homo sapiens, UniProt P34947).
T2 construct: purchased Thermo Scientific
T2 sequence (P34947 whole entry): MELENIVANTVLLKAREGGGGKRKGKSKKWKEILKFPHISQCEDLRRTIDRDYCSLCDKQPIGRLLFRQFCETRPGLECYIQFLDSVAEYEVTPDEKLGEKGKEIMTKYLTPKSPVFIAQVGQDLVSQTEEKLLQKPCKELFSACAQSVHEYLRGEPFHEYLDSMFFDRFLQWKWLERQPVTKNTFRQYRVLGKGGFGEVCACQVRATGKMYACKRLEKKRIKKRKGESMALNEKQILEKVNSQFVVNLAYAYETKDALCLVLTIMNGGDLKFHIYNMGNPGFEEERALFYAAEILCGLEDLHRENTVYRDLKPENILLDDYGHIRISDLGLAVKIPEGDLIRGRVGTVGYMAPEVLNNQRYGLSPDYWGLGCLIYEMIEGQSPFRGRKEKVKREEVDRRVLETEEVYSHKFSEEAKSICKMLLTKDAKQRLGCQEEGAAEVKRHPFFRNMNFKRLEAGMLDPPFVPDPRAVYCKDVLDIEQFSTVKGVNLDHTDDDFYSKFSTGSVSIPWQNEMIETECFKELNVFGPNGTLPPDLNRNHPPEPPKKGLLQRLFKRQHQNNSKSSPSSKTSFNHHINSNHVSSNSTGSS
Briefly: Lance Kinase Activity Assay, GRK5. Conditions: biochemical Lance kinase activity assay; class symbols A-F; read-out: GRK5 LANCE Assay (IC-50). A digest of the protocol: as §1

Consider `COc1ccc([C@@H](C)NC(=O)/C=C/c2c[nH]c3ncc(-c4ccc(S(C)(=O)=O)cc4)cc23)cc1OC` [Example 219, (R,E)-N-(1-(3,4-dimethoxyphenyl)ethyl)-3-(5-(4-(methylsulfonyl)phenyl)-1H-pyrrolo[2,3-b]pyridin-3-yl)acrylamide], for which the results for the IC50 (on GRK2; in assay [1]; at GRK5) were 1000 to 10000 nM, greater than 1000 nM and no more than 50 nM, respectively.

Regarding `COc1ccc([C@@H](C)NC(=O)/C(C#N)=C/c2c[nH]c3nccc(-c4ccc(N5CCN(C)CC5)cc4)c23)cc1OC` [Example 171, (R,E)-2-cyano-N-(1-(3,4-dimethoxyphenyl)ethyl)-3-(4-(4-(4-methylpiperazin-1-yl)phenyl)-1H-pyrrolo[2,3-b]pyridin-3-yl)acrylamide], the IC50 is 1000 to 10000 nM on GRK2 and no more than 50 nM at GRK5.

Turning to `COc1cccc(-c2cnc3[nH]cc(/C=C(\C#N)C(=O)N[C@H](C)c4ccc(OC)c(OC)c4)c3c2)c1` [Example 137, (R,E)-2-cyano-N-(1-(3,4-dimethoxyphenyl)ethyl)-3-(5-(3-methoxyphenyl)-1H-pyrrolo[2,3-b]pyridin-3-yl)acrylamide], the IC50 on GRK2 is greater than 10000 nM; on GRK5, no more than 50 nM.

As to `COc1ccc([C@@H](C)NC(=O)/C=C/c2c[nH]c3ncc(-c4cc(F)cc(F)c4)cc23)cc1OC` [Example 115, (R,E)-3-(5-(3,5-difluorophenyl)-1H-pyrrolo[2,3-b]pyridin-3-yl)-N-(1-(3,4-dimethoxyphenyl)ethyl)acrylamide], the IC50 was greater than 10000 nM on GRK2 and 100 to 500 nM on GRK5.

Take `C[C@@H](NC(=O)/C(C#N)=C/c1c[nH]c2ncccc12)c1ccc(F)c(F)c1` [Example 16, (R,E)-2-cyano-N-(1-(3,4-difluorophenyl)ethyl)-3-(1H-pyrrolo[2,3-b]pyridin-3-yl)acrylamide]: the IC50 at GRK2 and on GRK5 was 50 to 100 nM in each case.

For `CN(C)CC(NC(=O)/C(C#N)=C/c1c[nH]c2ncccc12)c1ccccc1` (centres unmarked) [Example 50, (E)-2-cyano-N-(2-(dimethylamino)-1-phenylethyl)-3-(1H-pyrrolo[2,3-b]pyridin-3-yl)acrylamide], the IC50 at GRK2 and on GRK5 was 100 to 500 nM throughout.

In the case of `Cc1noc2ccc([C@@H](C)NC(=O)/C=C/c3c[nH]c4ncc(-c5cnn(C)c5)cc34)cc12` [Example 260, (R,E)-3-(5-(1-methyl-1H-pyrazol-4-yl)-1H-pyrrolo[2,3-b]pyridin-3-yl)-N-(1-(3-methylbenzo[d]isoxazol-5-yl)ethyl)acrylamide], the IC50 is 50 to 100 nM on GRK2 and no more than 50 nM at GRK5.

Take `N#C/C(=C\c1c[nH]c2ncccc12)C(=O)NCc1ccc(C(F)(F)F)cc1` [Example 59, (E)-2-cyano-3-(1H-pyrrolo[2,3-b]pyridin-3-yl)-N-(4-(trifluoromethyl)benzyl)acrylamide]: the IC50 on GRK2 and at GRK5 was 1000 to 10000 nM in each case.

In the case of `COc1ccc([C@@H](C)NC(=O)/C=C/c2c[nH]c3ncc(-c4cnn(C5COC5)c4)cc23)cc1OC` [Example 215, (R,E)-N-(1-(3,4-dimethoxyphenyl)ethyl)-3-(5-(1-(oxetan-3-yl)-1H-pyrazol-4-yl)-1H-pyrrolo[2,3-b]pyridin-3-yl)acrylamide], the figures for the IC50 at GRK2 and on GRK5 were 1000 to 10000 nM and no more than 50 nM, respectively.

`COc1ccc([C@@H](C)NC(=O)/C(C#N)=C/c2c[nH]c3ncc(-c4cnn(C5CCN(C(=O)OC(C)(C)C)CC5)c4)cc23)cc1OC` [Example 165]: the IC50 on GRK2 fell in the range of 1000 to 10000 nM; at GRK5 it was 50 to 100 nM.

Take `COc1ccc([C@@H](C)NC(=O)/C=C/c2c[nH]c3nccc(-c4ccc(CN(C)C)cc4)c23)cc1OC` [Example 223, (R,E)-N-(1-(3,4-dimethoxyphenyl)ethyl)-3-(4-(4-((dimethylamino)methyl)phenyl)-1H-pyrrolo[2,3-b]pyridin-3-yl)acrylamide]: the values for the IC50 on GRK2 and at GRK5 were greater than 10000 nM and 100 to 500 nM, respectively.

With `COc1ccc([C@@H](C)NC(=O)/C(C#N)=C/c2c[nH]c3ncc(-c4cccc(OCCN(C)C)c4)cc23)cc1OC` [Example 152], the IC50 on GRK2 is 1000 to 10000 nM; at GRK5 it was no more than 50 nM.

On to `Cc1c(-c2cnn(C)c2)cnc2[nH]cc(/C=C(\C#N)C(=O)N[C@H](C)c3ccc(Cl)cc3)c12` [Example 100, (R,E)-N-(1-(4-chlorophenyl)ethyl)-2-cyano-3-(4-methyl-5-(1-methyl-1H-pyrazol-4-yl)-1H-pyrrolo[2,3-b]pyridin-3-yl)acrylamide], for which the IC50 lay in the range of 1000 to 10000 nM at GRK2 and 500 to 1000 nM at GRK5.

Consider `CC[S+]([O-])c1cccc(-c2cnc3[nH]cc(/C=C/C(=O)N[C@H](C)c4ccc(OC)c(OC)c4)c3c2)c1` (stereo partly drawn) [Example 191, (E)-N-((R)-1-(3,4-dimethoxyphenyl)ethyl)-3-(5-(3-(ethylsulfinyl)phenyl)-1H-pyrrolo[2,3-b]pyridin-3-yl)acrylamide], for which the values for the IC50 at GRK2 and on GRK5 were 1000 to 10000 nM and no more than 50 nM, respectively.

Consider `COc1ccc([C@@H](C)NC(=O)/C=C/c2c[nH]c3nccc(-c4cccc(NS(C)(=O)=O)c4)c23)cc1OC` [Example 231, (R,E)-N-(1-(3,4-dimethoxyphenyl)ethyl)-3-(4-(3-(methylsulfonamido)phenyl)-1H-pyrrolo[2,3-b]pyridin-3-yl)acrylamide], for which the IC50 is greater than 10000 nM on GRK2 and 100 to 500 nM on GRK5.

As for `COc1ccc(-c2cnc3[nH]cc(/C=C(\C#N)C(=O)N[C@H](C)c4ccc(OC)c(OC)c4)c3c2)cc1OC` [Example 145], the IC50 at GRK2 was greater than 10000 nM; at GRK5, no more than 50 nM.

On to `COc1ccc([C@@H](C)NC(=O)/C(C#N)=C/c2c[nH]c3ncccc23)cc1OC` [Example 15, (R,E)-2-cyano-N-(1-(3,4-dimethoxyphenyl)ethyl)-3-(1H-pyrrolo[2,3-b]pyridin-3-yl)acrylamide], for which the IC50 on GRK2 lay in the range of 1000 to 10000 nM; at GRK5, 50 to 100 nM.

For the molecule `C[C@@H](NC(=O)/C(C#N)=C/c1c[nH]c2ncc(-c3ccc(N4CCN(C)CC4)cc3)cc12)c1ccc(F)cc1` [Example 180], the IC50 at GRK2 is 100 to 500 nM; on GRK5, 50 to 100 nM.

Consider `COc1ccc([C@@H](C)NC(=O)/C=C/c2c[nH]c3ncc(-c4cc(Cl)cc(S(C)(=O)=O)c4)cc23)cc1OC` [Example 247, (R,E)-3-(5-(3-chloro-5-(methylsulfonyl)phenyl)-1H-pyrrolo[2,3-b]pyridin-3-yl)-N-(1-(3,4-dimethoxyphenyl)ethyl)acrylamide], for which the IC50 at GRK2 is greater than 10000 nM; at GRK5 it was no more than 50 nM.

Consider `COc1ccc([C@@H](C)NC(=O)/C(C#N)=C/c2c[nH]c3ncc(OCc4cc(C)nn4C)cc23)cc1OC` [Example 101, (R,E)-2-cyano-N-(1-(3,4-dimethoxyphenyl)ethyl)-3-(5-((1,3-dimethyl-1H-pyrazol-5-yl)methoxy)-1H-pyrrolo[2,3-b]pyridin-3-yl)acrylamide], for which the IC50 at GRK2 was greater than 10000 nM; on GRK5 it was 50 to 100 nM.

As to `N#C/C(=C\c1c[nH]c2ncccc12)C(=O)NC(C#N)c1ccccc1` (centres unmarked) [Example 49, (E)-2-cyano-N-(cyano(phenyl)methyl)-3-(1H-pyrrolo[2,3-b]pyridin-3-yl)acrylamide], the IC50 on GRK2 is greater than 10000 nM; on GRK5, 1000 to 10000 nM.

With `CC(NC(=O)/C(C#N)=C/c1c[nH]c2ncccc12)c1ccccc1-n1cccn1` (centres unmarked) [Example 38, (E)-N-(1-(2-(1H-pyrazol-1-yl)phenyl)ethyl)-2-cyano-3-(1H-pyrrolo[2,3-b]pyridin-3-yl)acrylamide], the IC50 at GRK2 and on GRK5 was 1000 to 10000 nM throughout.

With `C[C@@H](NC(=O)/C(C#N)=C/c1c[nH]c2ncccc12)c1ccc(Cl)c(Cl)c1` [Example 20, (R,E)-2-cyano-N-(1-(3,4-dichlorophenyl)ethyl)-3-(1H-pyrrolo[2,3-b]pyridin-3-yl)acrylamide], the IC50 at GRK2 and on GRK5 was 100 to 500 nM in each case.
